Assay results as given in US20250289848A1, “PEPTIDOMIMETIC INHIBITORS OF B-CATENIN/TCF PROTEIN-PROTEIN INTERACTION” (H. LEE MOFFITT CANCER CENTER AND RESEARCH INSTITUTE, INC., priority 2018, published 2025).
Entries after “also recorded” stand apart in the source; their conditions may differ.

Assays:
[1] = test system: A549 cells; test: MTS cell viability assay, A549; assay type: cell-based; details: Homo sapiens, A549, 72 h; read-out: MTs IC50 ± SD A549
[2] = test system: SW480 cells; test: MTS cell viability assay, SW480; assay type: cell-based; details: Homo sapiens, SW480, 72 h; read-out: MTs IC50 ± SD SW480
[3] = test system: MDA-MB-468 cells; test: MTS cell viability assay, MDA-MB-468; assay type: cell-based; details: Homo sapiens, MDA-MB-468, 72 h, read-out: MTs IC50 ± SD MDA-MB-468
[4] = test system: FOPFlash luciferase reporter in β-catenin activated HEK293 cells; test: FOPFlash luciferase reporter assay; assay type: cell-based; details: 24 h treatment, mutant Tcf4 binding sites
Protocol: (§1) FuGENE 6 (E2962, Promega) in a 96-well plate format was used for the transfection of HEK293 cells according to the manufacturer's instructions. HEK293 cells were co-transfected with 45 ng of the TOPFlash or FOPFlash reporter gene, 135 ng of pcDNA3.1-p-catenin and 20 ng of pCMV-RL normalization reporter gene. Cells were cultured in DMEM and 10% fatal bovine serum at 37° C. for 24 h, and different concentrations of inhibitors were then added. After 24 h, the luciferase reporter activity was measured using the Dual-Glo system (E2940, Promega). Normalized luciferase activity in response to the treatment with the inhibitors was compared with that obtained from the cells treated with DMSO. Experiments were performed in triplicate.

[5] = test system: HCT116 cells; test: MTS cell viability assay, HCT116; assay type: cell-based; details: Homo sapiens, HCT-116, 72 h; read-out: MTs IC50 ± SD HCT116
[6] = test system: MDA-MB-231 cells; test: MTS cell viability assay, MDA-MB-231; assay type: cell-based; details: Homo sapiens, MDA-MB-231, 72 h; read-out: MTs IC50 ± SD MDA-MB-231
[7] = test system: TOPFlash luciferase reporter in β-catenin activated HEK293 cells; test: TOPFlash luciferase reporter assay; assay type: cell-based; details: 24 h treatment, wild-type Tcf4 binding sites
Protocol: as §1

[8] = test system: BT-20 cells; test: MTS cell viability assay, BT-20; assay type: cell-based; details: Homo sapiens, BT-20, 72 h; read-out: MTs IC50 ± SD BT-20
[9] = test system: β-catenin/Tcf PPI; assay type: cell-based; details: HCT116 cells, 24 h treatment
[10] = test system: Wnt/β-catenin hyperactive cancer cells; test: MTS cell viability assay, summary over cell lines; assay type: cell-based; details: result in words
[11] = test system: MDA-MB-231 cells; test: Matrigel invasion assay; assay type: cell-based, human; details: 10 μM; 24 h
Protocol: Matrigel invasion assay. MDA-MB-231 cells (5×10^4) suspended in 200 p L starvation medium were added to the upper chamber of a Matrigel coated insert (6.5 mm diameter, […]; Corning 353097), and the insert was placed in a 24-well plate containing […] DMEM medium with 10% FBS. Inhibitors were added to both upper and the lower chambers. Invasion assays were performed for 24 h and cells were fixed with 3.7% formaldehyde. Cells were stained with crystal violet staining solution. The cells on the upper side of the insert were removed with a cotton swab. Five randomly selected fields (×10 objectives) on the lower side of the insert were photographed, and the invaded cells were counted.
(§2) Scratch wound healing and Matrigel invasion assays using TNBC MDA-MB-231 cells were conducted.

[12] = test system: β-catenin/E-cadherin PPI; test: Co-IP experiment, HCT116 cells, β-catenin/E-cadherin; details: 24 h, concentrations sufficient to disrupt β-catenin/Tcf PPI
[13] = test system: β-catenin/APC PPI; test: Co-IP experiment, HCT116 cells, β-catenin/APC; details: 24 h, concentrations sufficient to disrupt β-catenin/Tcf PPI
[14] = test system: MDA-MB-231 cells; test: Scratch wound healing assay; assay type: cell-based, human; details: 10 μM; 10% serum; mitomycin; 14 h
Protocol: Scratch wound healing assay. To the confluent monolayer of MDA-MB-231 cells in 24-well plates, wounds will be made by scraping a sterile 200 μL pipette tip. Cells were maintained in DMEM containing 10% FBS with 10 μg/mL mitomycin to inhibit cell proliferation. Images of wounds were taken immediately and 14 h after wounding.
as §2

`NC(=O)CC[C@H](NC(=O)[C@H](Cc1nn[nH]n1)NC(=O)[C@H](Cc1ccc2ccccc2c1)NC(=O)c1cc2cc(Cl)ccc2[nH]1)C(=O)Nc1ccc(OC(F)(F)F)cc1` [Compound 55, (S)-2-((S)-2-((S)-2-(5-Chloro-1H-indole-2-carboxamido)-3-(naphthalen-2-yl)propanamido)-3-(2H-tetrazol-5-yl)propanamido)-N^1-(4-(trifluoromethoxy)phenyl)pentanediamide] gave an IC50 [1] of 60.3 ± 10.5 µM, an IC50 [2] of 28.2 ± 4.63 µM and an IC50 [3] of 29.2 ± 4.02 µM. The “FOPFlash luciferase reporter activity” value [4] was “did not inhibit”, the IC50 [5] was 63.9 ± 7.48 µM and the IC50 [6] was 34.3 ± 6.42 µM. The “TOPFlash luciferase activity (transactivation of Wnt/β-catenin signaling)” value [7] was “inhibited” and the IC50 [8] was 38.4 ± 3.99 µM.

For `CCOC(=O)CC[C@H](NC(=O)[C@H](Cc1nn[nH]n1)NC(=O)[C@H](Cc1ccc2ccccc2c1)NC(=O)c1cc2cc(Cl)ccc2[nH]1)C(=O)Nc1ccc(OC(F)(F)F)cc1` [Compound 56, Ethyl (S)-4-((S)-2-((S)-2-(5-chloro-1H-indole-2-carboxamido)-3-(naphthalen-2-yl)propanamido)-3-(2H-tetrazol-5-yl)propanamido)-5-oxo-5-((4-(trifluoromethoxy)phenyl)amino)pentanoate], the IC50 [1] was 86.4 ± 8.58 µM, the IC50 [2] was 14.1 ± 2.86 µM and the IC50 [3] was 7.25 ± 0.72 µM. The “FOPFlash luciferase reporter activity” value [4] was “did not inhibit”, the “disruption of the β-catenin/Tcf PPI (co-IP)” value [9] was “disrupted the β-catenin/Tcf PPI; also recorded: dose-dependently inhibited” and the IC50 [5] was 69.4 ± 7.21 µM. The “viability of Wnt/β-catenin hyperactive cancer cells” value [10] was “selectively inhibited”, the “invasion of TNBC MDA-MB-231 cells (Matrigel)” value [11] was “selectively inhibited; also recorded: inhibited invasion; also recorded: effectively inhibit” and the “effect on the β-catenin/E-cadherin PPI (co-IP)” value [12] was “without affecting; also recorded: had no effect”. The “effect on the β-catenin/APC PPI (co-IP)” value [13] was “without affecting; also recorded: had no effect”, the “migration of TNBC MDA-MB-231 cells (wound healing)” value [14] was “selectively inhibited; also recorded: inhibited the migration; also recorded: effectively inhibit” and the IC50 [6] was 12.3 ± 2.16 µM. For the same compound, the “TOPFlash luciferase activity (transactivation of Wnt/β-catenin signaling)” value [7] was “suppressed transactivation of Wnt/β-catenin signaling in dose-dependent manners; also recorded: inhibited” and the IC50 [8] was 16.5 ± 2.23 µM.
